Reference: patent US9694016B2 (Novartis AG, priority 2013, dated 2017)
pIC50: −log10 of the molar value.

Columns and labels:
[1] = target: C-Raf TR (truncated C-Raf protein, Δ1-324 deletion mutant) (Homo sapiens (Human), UniProt P04049); assay type: biochemical; details: truncated C-Raf approximately 4 nM, ATP 1 uM, 60 min pre-incubation, 1 hour reaction
Protocol: biotinylated Mek, kinase dead
biotinylated Mek, Kinase dead approximately 10 nM

b-Raf (V600E) = b-Raf (V600E) (Homo sapiens (Human), UniProt P15056, V600E); details: read-out: b-Raf IC-50; Table 2; AlphaScreen, 3 hours reaction
Sequence of b-Raf (V600E) (P15056 whole entry V600E): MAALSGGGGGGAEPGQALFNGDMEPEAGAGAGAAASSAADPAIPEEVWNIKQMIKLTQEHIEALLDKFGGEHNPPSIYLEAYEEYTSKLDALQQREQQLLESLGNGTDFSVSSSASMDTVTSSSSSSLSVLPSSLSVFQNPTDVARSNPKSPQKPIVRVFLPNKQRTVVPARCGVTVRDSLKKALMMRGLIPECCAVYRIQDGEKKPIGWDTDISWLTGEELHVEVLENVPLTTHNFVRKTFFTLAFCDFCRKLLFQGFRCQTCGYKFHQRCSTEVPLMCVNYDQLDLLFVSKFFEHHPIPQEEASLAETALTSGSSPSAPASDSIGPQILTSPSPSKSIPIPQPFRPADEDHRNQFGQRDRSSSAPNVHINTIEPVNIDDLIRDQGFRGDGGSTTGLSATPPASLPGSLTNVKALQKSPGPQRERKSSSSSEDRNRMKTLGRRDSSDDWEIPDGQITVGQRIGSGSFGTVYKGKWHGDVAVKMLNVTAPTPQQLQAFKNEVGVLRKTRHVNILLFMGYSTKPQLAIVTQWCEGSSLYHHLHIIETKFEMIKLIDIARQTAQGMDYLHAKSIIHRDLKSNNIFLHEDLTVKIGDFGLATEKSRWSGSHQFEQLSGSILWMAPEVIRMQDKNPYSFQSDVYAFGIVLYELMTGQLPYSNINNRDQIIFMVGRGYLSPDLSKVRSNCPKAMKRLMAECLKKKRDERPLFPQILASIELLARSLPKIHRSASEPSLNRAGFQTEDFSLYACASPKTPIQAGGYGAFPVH

pIC50 [1] | pIC50 (b-Raf (V600E)) | SMILES
9.51 | 9.15 | Cc1ccc(NC(=O)c2cccc(C(F)(F)F)c2)cc1-c1cncc(N2CCOCC2)n1 [Example 118, N-(4-methyl-3-(6-morpholinopyrazin-2-yl)phenyl)-3-(trifluoromethyl)benzamide]
9.57 | 9.40 | Cc1ccc(NC(=O)c2cccc(C(F)(F)F)c2)cc1-c1cn(C)c(=O)c(N2CCOCC2)n1 [Example 119, N-(4-methyl-3-(4-methyl-6-morpholino-5-oxo-4,5-dihydropyrazin-2-yl)phenyl)-3-(trifluoromethyl)benzamide]
